Measurements taken from patent publication US10414811B2, “Protease-resistant lipidated GLP-1 analogs” (MEDIMMUNE LIMITED, priority 2015, dated 2019).
Read-outs that look alike come from different tables or passages of the source. Numbered stars: 1 amine (or outer) side, 2 acyl side, 3 side chain; on linkers, the order of the positions; unused ones are H or OH. Square brackets hold non-standard residues; d marks the D form. Side chains are listed from the residue outwards. Peptide text beside a SMILES is read from it. * marks the point of attachment. γGlu = O=C(O)[C@H](CCC(=O)[*:2])N[*:1]; Palmitoyl = CCCCCCCCCCCCCCCC(=O)*; αMeF = C[C@](N)(Cc1ccccc1)C(=O)O; αMeK = C[C@](N)(CCCCN)C(=O)O; αMeS = C[C@](N)(CO)C(=O)O; Aib = CC(C)(N)C(=O)O

Experiments:
Assay type in all cases: cell-based
[1] = biological target: T1, human GLP-1 receptor (GLP-1R) (Homo sapiens, UniProt P43220); experiment: cAMP assay, human GLP-1R cells
T1 construct: expressed in transfected cells
In short: (§1)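 Peptide-stimulated cAMP measured by two-step HTRF after a 30 min room-temperature incubation with receptor-expressing cells (hGLP-1R, hGIPR at 1×10^5 cells/ml; hGCGR at 2×10^5 cells/ml). Duplicate dilutions; EC50 from 4-parameter logistic fit of % Delta F.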

[2] = biological target: T2, human glucagon receptor (GCGR) (Homo sapiens, UniProt P47871); experiment: cAMP assay, human GCGR cells; details: cAMP assay
T2 construct: expressed in transfected cells
In short: as §1

[3] = biological target: T3, human glucose-dependent insulinotropic peptide receptor (GIPR) (Homo sapiens, UniProt P48546); experiment: cAMP assay, human GIPR cells; details: cAMP assay
T3 construct: expressed in transfected cells
T3 sequence (P48546 22-466): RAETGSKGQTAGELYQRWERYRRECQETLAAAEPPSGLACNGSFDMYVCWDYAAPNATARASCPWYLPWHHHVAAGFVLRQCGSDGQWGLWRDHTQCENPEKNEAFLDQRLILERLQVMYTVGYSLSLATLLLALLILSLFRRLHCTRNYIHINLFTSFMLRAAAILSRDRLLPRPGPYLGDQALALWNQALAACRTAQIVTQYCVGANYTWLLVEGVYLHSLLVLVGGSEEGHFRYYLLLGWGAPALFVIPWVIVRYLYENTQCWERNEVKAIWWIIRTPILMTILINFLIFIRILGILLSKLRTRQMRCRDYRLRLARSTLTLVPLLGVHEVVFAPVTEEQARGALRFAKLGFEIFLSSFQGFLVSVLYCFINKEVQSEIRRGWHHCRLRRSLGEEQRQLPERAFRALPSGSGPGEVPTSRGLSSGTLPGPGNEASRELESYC
In short: as §1

GLP-1R (INS1e assay) = biological target: T4, GLP-1R (INS1e assay) (Rattus norvegicus, UniProt P32301); experiment: INS1e assay, cAMP activity at GLP-1R; details: mono-lipidated peptides
T4 construct: endogenous in cells; host or cells: INS-1E cells
T4 sequence (P32301 22-463): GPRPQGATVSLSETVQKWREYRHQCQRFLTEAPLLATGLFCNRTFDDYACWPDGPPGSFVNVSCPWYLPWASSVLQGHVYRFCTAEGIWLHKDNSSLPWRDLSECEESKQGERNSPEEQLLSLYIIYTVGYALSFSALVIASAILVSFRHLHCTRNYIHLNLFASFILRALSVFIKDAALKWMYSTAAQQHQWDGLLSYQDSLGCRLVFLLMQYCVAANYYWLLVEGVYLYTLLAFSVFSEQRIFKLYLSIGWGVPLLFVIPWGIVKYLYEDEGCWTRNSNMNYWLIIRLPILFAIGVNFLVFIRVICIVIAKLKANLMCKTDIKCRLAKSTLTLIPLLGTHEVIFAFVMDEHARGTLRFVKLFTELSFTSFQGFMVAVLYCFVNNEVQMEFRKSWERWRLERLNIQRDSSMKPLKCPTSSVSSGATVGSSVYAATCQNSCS
In short: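 cAMP was quantified by two-step HTRF, using anti-cAMP cryptate donor and cAMP-d2 acceptor, each diluted 1/20 in conjugate and lysis buffer. EC50 values of the synthetic peptides were derived from the cAMP readout.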

[4] = cAMP assay, first determination (n1), read-out: Primary assay EC50 GLP-1R n1
[5] = cAMP assay, second determination (n2), read-out: Primary assay EC50 GLP-1R n2
[6] = mean of n1 and n2, read-out: Mean pM GLP-1R
[7] = first determination (n1), read-out: Primary assay EC50 Gluc-R (n1)
[8] = second determination (n2), read-out: Primary assay EC50 Gluc-R (n2)
[9] = first determination (n1), read-out: Primary assay EC50 GIP-R (n1)
[10] = second determination (n2), read-out: Primary assay EC50 GIP-R (n2)
[11] = mean of n1 and n2, read-out: INS1e assay EC50 Mean pM GLP-1R
[12] = replicate n1, read-out: INS1e assay EC50 GLP-1R n1
[13] = replicate n2, read-out: INS1e assay EC50 GLP-1R n2

T2 sequence (P47871 26-477): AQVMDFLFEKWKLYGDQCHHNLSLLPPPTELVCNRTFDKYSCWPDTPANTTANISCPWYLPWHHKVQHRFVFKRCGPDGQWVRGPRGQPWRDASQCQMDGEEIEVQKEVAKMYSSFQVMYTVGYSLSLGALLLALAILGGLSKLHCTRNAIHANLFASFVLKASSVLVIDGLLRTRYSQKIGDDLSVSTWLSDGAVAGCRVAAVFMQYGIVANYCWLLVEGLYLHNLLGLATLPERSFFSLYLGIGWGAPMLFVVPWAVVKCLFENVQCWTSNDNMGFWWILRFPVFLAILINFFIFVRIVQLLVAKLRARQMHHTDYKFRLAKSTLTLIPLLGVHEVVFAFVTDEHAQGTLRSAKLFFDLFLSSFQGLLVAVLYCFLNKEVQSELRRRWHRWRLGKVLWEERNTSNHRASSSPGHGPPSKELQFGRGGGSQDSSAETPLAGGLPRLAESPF
T1 sequence (P43220 24-463): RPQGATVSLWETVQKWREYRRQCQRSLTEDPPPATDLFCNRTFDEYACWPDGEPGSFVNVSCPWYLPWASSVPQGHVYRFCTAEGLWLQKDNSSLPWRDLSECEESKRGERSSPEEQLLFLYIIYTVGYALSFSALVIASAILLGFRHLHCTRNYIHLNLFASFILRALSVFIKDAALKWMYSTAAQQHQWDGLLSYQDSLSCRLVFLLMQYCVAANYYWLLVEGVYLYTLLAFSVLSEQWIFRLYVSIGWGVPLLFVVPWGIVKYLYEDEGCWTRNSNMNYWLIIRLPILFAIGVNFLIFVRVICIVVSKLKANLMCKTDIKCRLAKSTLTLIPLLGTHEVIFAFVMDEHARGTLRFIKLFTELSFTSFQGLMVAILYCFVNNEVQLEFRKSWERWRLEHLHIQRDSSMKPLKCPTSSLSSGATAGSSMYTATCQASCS

Row | EC50 [1, 4] [pM] | EC50 [1, 5] [pM] | EC50 [1, 6] [pM] | EC50 [2, 7] [pM] | EC50 [2, 8] [pM] | EC50 [3, 9] [pM] | EC50 [3, 10] [pM] | EC50 (GLP-1R (INS1e assay); [11]) [pM] | EC50 (GLP-1R (INS1e assay); [12]) [pM] | EC50 (GLP-1R (INS1e assay); [13]) [pM] | Compound
1 | 8.4 | 6 | 7.2 | ≥ 27000 | ≥ 27000 | ≥ 27000 | ≥ 27000 | 429 | 326 | 531 | CCCCCCCCCCCCCCCC(=O)N[C@@H](CCC(=O)NCCCC[C@H](NC(=O)[C@@H](NC(=O)[C@](C)(Cc1ccccc1)NC(=O)[C@H](CCC(=O)O)NC(=O)[C@](C)(CCCCN)NC(=O)[C@H](C)NC(=O)[C@H](C)NC(=O)[C@H](CCC(=O)O)NC(=O)CNC(=O)[C@H](CCC(=O)O)NC(=O)[C@H](CC(C)C)NC(=O)[C@](C)(Cc1ccccc1)NC(=O)[C@H](CO)NC(=O)[C@](C)(CO)NC(=O)[C@@H](NC(=O)[C@H](CC(=O)O)NC(=O)[C@H](CO)NC(=O)[C@@H](NC(=O)[C@](C)(Cc1ccccc1)NC(=O)[C@H](CO)NC(=O)CNC(=O)[C@H](CCC(=O)O)NC(=O)C(C)(C)NC(=O)[C@@H](N)Cc1c[nH]cn1)[C@@H](C)O)C(C)C)[C@@H](C)CC)C(=O)N[C@@](C)(Cc1ccccc1)C(=O)N[C@H](C(=O)N[C@H](C(=O)N[C@@](C)(CCCCN)C(=O)NCC(=O)NCC(N)=O)C(C)C)C(C)C)C(=O)O [compound 76] (H-H[Aib]EGS[αMeF]TSDV[αMeS]S[αMeF]LEGEAA[αMeK]E[αMeF]IK([γGlu-Palmitoyl])[αMeF]VV[αMeK]GG-NH2; N-terminus assumed)
2 | 3 | 2 | 2.5 | ≥ 27000 | ≥ 27000 | ≥ 27000 | ≥ 27000 | 195 | 151 | 238 | CCCCCCCCCCCCCCCC(=O)N[C@@H](CCC(=O)NCCCC[C@H](NC(=O)[C@H](CCC(=O)O)NC(=O)CNC(=O)[C@H](CCC(=O)O)NC(=O)[C@H](CC(C)C)NC(=O)[C@](C)(Cc1ccccc1)NC(=O)[C@H](CO)NC(=O)[C@](C)(CO)NC(=O)[C@@H](NC(=O)[C@H](CC(=O)O)NC(=O)[C@H](CO)NC(=O)[C@@H](NC(=O)[C@](C)(Cc1ccccc1)NC(=O)[C@H](CO)NC(=O)CNC(=O)[C@H](CCC(=O)O)NC(=O)C(C)(C)NC(=O)[C@@H](N)Cc1c[nH]cn1)[C@@H](C)O)C(C)C)C(=O)N[C@@H](C)C(=O)N[C@@](C)(CCCCN)C(=O)N[C@@H](CCC(=O)O)C(=O)N[C@@](C)(Cc1ccccc1)C(=O)N[C@H](C(=O)N[C@@H](C)C(=O)N[C@@](C)(Cc1ccccc1)C(=O)N[C@H](C(=O)N[C@H](C(=O)N[C@@](C)(CCCCN)C(=O)NCC(=O)NCC(N)=O)C(C)C)C(C)C)[C@@H](C)CC)C(=O)O [compound 82] (H-H[Aib]EGS[αMeF]TSDV[αMeS]S[αMeF]LEGEK([γGlu-Palmitoyl])A[αMeK]E[αMeF]IA[αMeF]VV[αMeK]GG-NH2; N-terminus assumed)

More lines, now with the values behind:

Row | Compound | EC50 [1, 4] [pM] | EC50 [1, 5] [pM] | EC50 [1, 6] [pM] | EC50 [2, 7] [pM] | EC50 [2, 8] [pM] | EC50 [3, 9] [pM] | EC50 [3, 10] [pM] | EC50 (GLP-1R (INS1e assay); [11]) [pM] | EC50 (GLP-1R (INS1e assay); [12]) [pM] | EC50 (GLP-1R (INS1e assay); [13]) [pM]
3 | CCCCCCCCCCCCCCCC(=O)N[C@@H](CCC(=O)NCCCC[C@H](NC(=O)[C@](C)(CCCCN)NC(=O)[C@H](C)NC(=O)[C@H](C)NC(=O)[C@H](CCC(=O)O)NC(=O)CNC(=O)[C@H](CCC(=O)O)NC(=O)[C@H](CC(C)C)NC(=O)[C@](C)(Cc1ccccc1)NC(=O)[C@H](CO)NC(=O)[C@](C)(CO)NC(=O)[C@@H](NC(=O)[C@H](CC(=O)O)NC(=O)[C@H](CO)NC(=O)[C@@H](NC(=O)[C@](C)(Cc1ccccc1)NC(=O)[C@H](CO)NC(=O)CNC(=O)[C@H](CCC(=O)O)NC(=O)C(C)(C)NC(=O)[C@@H](N)Cc1c[nH]cn1)[C@@H](C)O)C(C)C)C(=O)N[C@@](C)(Cc1ccccc1)C(=O)N[C@H](C(=O)N[C@@H](C)C(=O)N[C@@](C)(Cc1ccccc1)C(=O)N[C@H](C(=O)N[C@H](C(=O)N[C@@](C)(CCCCN)C(=O)NCC(=O)NCC(N)=O)C(C)C)C(C)C)[C@@H](C)CC)C(=O)O [compound 79] (H-H[Aib]EGS[αMeF]TSDV[αMeS]S[αMeF]LEGEAA[αMeK]K([γGlu-Palmitoyl])[αMeF]IA[αMeF]VV[αMeK]GG-NH2) | 3.9 | 2.3 | 3.1 | ≥ 28000 | ≥ 28000 | ≥ 28000 | ≥ 28000 | 408 | 289 | 527
4 | CCCCCCCCCCCCCCCC(=O)N[C@@H](CCC(=O)NCCCC[C@H](NC(=O)[C@H](C)NC(=O)[C@H](C)NC(=O)[C@H](CCC(=O)O)NC(=O)CNC(=O)[C@H](CCC(=O)O)NC(=O)[C@H](CC(C)C)NC(=O)[C@](C)(Cc1ccccc1)NC(=O)[C@H](CO)NC(=O)[C@](C)(CO)NC(=O)[C@@H](NC(=O)[C@H](CC(=O)O)NC(=O)[C@H](CO)NC(=O)[C@@H](NC(=O)[C@](C)(Cc1ccccc1)NC(=O)[C@H](CO)NC(=O)CNC(=O)[C@H](CCC(=O)O)NC(=O)C(C)(C)NC(=O)[C@@H](N)Cc1c[nH]cn1)[C@@H](C)O)C(C)C)C(=O)N[C@@H](CCC(=O)O)C(=O)N[C@@](C)(Cc1ccccc1)C(=O)N[C@H](C(=O)N[C@@H](C)C(=O)N[C@@](C)(Cc1ccccc1)C(=O)N[C@H](C(=O)N[C@H](C(=O)N[C@@](C)(CCCCN)C(=O)NCC(=O)NCC(N)=O)C(C)C)C(C)C)[C@@H](C)CC)C(=O)O [compound 80] | 31 | 17 | 24 | ≥ 28000 | ≥ 28000 | ≥ 28000 | ≥ 28000 | 2610 | 3890 | 1330
5 | CCCCCCCCCCCCCCCC(=O)N[C@@H](CCC(=O)NCCCC[C@H](NC(=O)CNC(=O)[C@H](CCC(=O)O)NC(=O)[C@H](CC(C)C)NC(=O)[C@](C)(Cc1ccccc1)NC(=O)[C@H](CO)NC(=O)[C@](C)(CO)NC(=O)[C@@H](NC(=O)[C@H](CC(=O)O)NC(=O)[C@H](CO)NC(=O)[C@@H](NC(=O)[C@](C)(Cc1ccccc1)NC(=O)[C@H](CO)NC(=O)CNC(=O)[C@H](CCC(=O)O)NC(=O)C(C)(C)NC(=O)[C@@H](N)Cc1c[nH]cn1)[C@@H](C)O)C(C)C)C(=O)N[C@@H](C)C(=O)N[C@@H](C)C(=O)N[C@@](C)(CCCCN)C(=O)N[C@@H](CCC(=O)O)C(=O)N[C@@](C)(Cc1ccccc1)C(=O)N[C@H](C(=O)N[C@@H](C)C(=O)N[C@@](C)(Cc1ccccc1)C(=O)N[C@H](C(=O)N[C@H](C(=O)N[C@@](C)(CCCCN)C(=O)NCC(=O)NCC(N)=O)C(C)C)C(C)C)[C@@H](C)CC)C(=O)O [compound 83] (H-H[Aib]EGS[αMeF]TSDV[αMeS]S[αMeF]LEGK([γGlu-Palmitoyl])AA[αMeK]E[αMeF]IA[αMeF]VV[αMeK]GG-NH2) | 3.2 | 4 | 3.6 | ≥ 28000 | ≥ 28000 | ≥ 28000 | ≥ 28000 | 194 | 137 | 250
6 | CCCCCCCCCCCCCCCC(=O)N[C@@H](CCC(=O)NCCCC[C@H](NC(=O)[C@](C)(Cc1ccccc1)NC(=O)[C@H](CO)NC(=O)[C@](C)(CO)NC(=O)[C@@H](NC(=O)[C@H](CC(=O)O)NC(=O)[C@H](CO)NC(=O)[C@@H](NC(=O)[C@](C)(Cc1ccccc1)NC(=O)[C@H](CO)NC(=O)CNC(=O)[C@H](CCC(=O)O)NC(=O)C(C)(C)NC(=O)[C@@H](N)Cc1c[nH]cn1)[C@@H](C)O)C(C)C)C(=O)N[C@@H](CCC(=O)O)C(=O)NCC(=O)N[C@@H](CCC(=O)O)C(=O)N[C@@H](C)C(=O)N[C@@H](C)C(=O)N[C@@](C)(CCCCN)C(=O)N[C@@H](CCC(=O)O)C(=O)N[C@@](C)(Cc1ccccc1)C(=O)N[C@H](C(=O)N[C@@H](C)C(=O)N[C@@](C)(Cc1ccccc1)C(=O)N[C@H](C(=O)N[C@H](C(=O)N[C@@](C)(CCCCN)C(=O)NCC(=O)NCC(N)=O)C(C)C)C(C)C)[C@@H](C)CC)C(=O)O [compound 86] (H-H[Aib]EGS[αMeF]TSDV[αMeS]S[αMeF]K([γGlu-Palmitoyl])EGEAA[αMeK]E[αMeF]IA[αMeF]VV[αMeK]GG-NH2) | 1.3 | 1.7 | 1.5 | ≥ 28000 | ≥ 28000 | ≥ 28000 | ≥ 28000 | 65 | 45.3 | 84.5
